PubChem BioAssay (NCI)
Values after ≈ are worked out from the molar mass of the structure shown.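 These data come from cells grown in 96-well plates and exposed to compound for 48 hours at five concentrations. At the GI50, growth is halved. Definition used: TGI = concentration required for complete inhibition of growth.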 Non-standard residues stand in square brackets, D forms with d. Residues, ends and D or L forms follow the SMILES beside them. ξ: configuration not given here. *: point of attachment. Boc = CC(C)(C)OC(=O)*; ξV = CC(C)C(N)C(=O)O; OBn = c1ccc(CO*)cc1

Columns and labels:
Assay in all cases: DTP human tumour cell line panel, 48 h
[1] = tested on: 786-0 renal
[2] = tested on: A498 renal
[3] = tested on: A549 NSCLC
[4] = tested on: ACHN renal
[5] = tested on: BT-549 breast
[6] = tested on: CAKI-1 renal
[7] = tested on: CCRF-CEM leukemia
[8] = tested on: COLO 205 colon
[9] = tested on: DU-145 prostate
[10] = tested on: EKVX NSCLC
[11] = tested on: HCC-2998 colon
[12] = tested on: HCT-116 colon
[13] = tested on: HCT-15 colon
[14] = tested on: HL-60(TB) leukemia
[15] = tested on: HOP-62 NSCLC
[16] = tested on: HOP-92 NSCLC
[17] = tested on: HS 578T breast
[18] = tested on: HT29 colon
[19] = tested on: IGROV1 ovarian
[20] = tested on: K-562 leukemia
[21] = tested on: KM12 colon
[22] = tested on: LOX IMVI melanoma
[23] = tested on: M14 melanoma
[24] = tested on: MALME-3M melanoma
[25] = tested on: MCF7 breast
[26] = tested on: MDA-MB-231 breast
[27] = tested on: MDA-MB-435
[28] = tested on: MOLT-4 leukemia
[29] = tested on: NCI-H226 lung
[30] = tested on: NCI-H23 lung
[31] = tested on: NCI-H460 lung
[32] = tested on: NCI-H522 lung
[33] = tested on: NCI/ADR-RES ovarian
[34] = tested on: OVCAR-3 ovarian
[35] = tested on: OVCAR-4 ovarian
[36] = tested on: OVCAR-5 ovarian
[37] = tested on: OVCAR-8 ovarian
[38] = tested on: PC-3 prostate
[39] = tested on: RPMI-8226 leukemia
[40] = tested on: RXF 393 renal
[41] = tested on: SF-268 CNS
[42] = tested on: SF-295 CNS
[43] = tested on: SF-539 CNS
[44] = tested on: SK-MEL-2 melanoma
[45] = tested on: SK-MEL-28 melanoma
[46] = tested on: SK-MEL-5 melanoma
[47] = tested on: SK-OV-3 ovarian
[48] = tested on: SN12C renal
[49] = tested on: SNB-19 CNS
[50] = tested on: SNB-75 CNS
[51] = tested on: SR leukemia
[52] = tested on: SW-620 colon
[53] = tested on: T-47D breast
[54] = tested on: TK-10 renal
[55] = tested on: U251 CNS
[56] = tested on: UACC-257 melanoma
[57] = tested on: UACC-62 melanoma
[58] = tested on: UO-31 renal
[59] = tested on: MDA-N

## COC(=O)C(C)NP(=O)(OCc1ccc(Cn2cnc3c(=O)[nH]c(N)nc32)cc1)Oc1ccccc1 (stereo not given)
[1]
  GI50: > 100 µM
  TGI: > 100 µM
[2]
  GI50: > 100 µM
  TGI: > 100 µM
[3]
  GI50: > 100 µM
  TGI: > 100 µM
[4]
  GI50: > 100 µM
  TGI: > 100 µM
[5]
  GI50: > 100 µM
  TGI: > 100 µM
[6]
  GI50: > 100 µM
  TGI: > 100 µM
[7]
  GI50: > 100 µM
  TGI: > 100 µM
[8]
  GI50: > 100 µM
  TGI: > 100 µM
[9]
  GI50: > 100 µM
  TGI: > 100 µM
[10]
  GI50: > 100 µM
  TGI: > 100 µM
[11]
  GI50: > 100 µM
  TGI: > 100 µM
[12]
  GI50: > 100 µM
  TGI: > 100 µM
[13]
  GI50: > 100 µM
  TGI: > 100 µM
[14]
  GI50: > 100 µM
  TGI: > 100 µM
[15]
  GI50: > 100 µM
  TGI: > 100 µM
[16]
  GI50: > 100 µM
  TGI: > 100 µM
[17]
  GI50: > 100 µM
  TGI: > 100 µM
[18]
  GI50: > 100 µM
  TGI: > 100 µM
[19]
  GI50: > 100 µM
  TGI: > 100 µM
[20]
  GI50: > 100 µM
  TGI: > 100 µM
[21]
  GI50: > 100 µM
  TGI: > 100 µM
[22]
  GI50: > 100 µM
  TGI: > 100 µM
[23]
  GI50: > 100 µM
  TGI: > 100 µM
[24]
  GI50: > 100 µM
  TGI: > 100 µM
[25]
  GI50: > 100 µM
  TGI: > 100 µM
[26]
  GI50: > 100 µM
  TGI: > 100 µM
[27]
  GI50: > 100 µM
  TGI: > 100 µM
[28]
  GI50: > 100 µM
  TGI: > 100 µM
[29]
  GI50: > 100 µM
  TGI: > 100 µM
[30]
  GI50: > 100 µM
  TGI: > 100 µM
[31]
  GI50: > 100 µM
  TGI: > 100 µM
[32]
  GI50: > 100 µM
  TGI: > 100 µM
[33]
  GI50: > 100 µM
  TGI: > 100 µM
[34]
  GI50: > 100 µM
  TGI: > 100 µM
[35]
  GI50: > 100 µM
  TGI: > 100 µM
[36]
  GI50: > 100 µM
  TGI: > 100 µM
[37]
  GI50: > 100 µM
  TGI: > 100 µM
[38]
  GI50: > 100 µM
  TGI: > 100 µM
[39]
  GI50: > 100 µM
  TGI: > 100 µM
[40]
  GI50: > 100 µM
  TGI: > 100 µM
[41]
  GI50: > 100 µM
  TGI: > 100 µM
[42]
  GI50: > 100 µM
  TGI: > 100 µM
[43]
  GI50: > 100 µM
  TGI: > 100 µM
[44]
  GI50: > 100 µM
  TGI: > 100 µM
[45]
  GI50: > 100 µM
  TGI: > 100 µM
[46]
  GI50: > 100 µM
  TGI: > 100 µM
[47]
  GI50: > 100 µM
  TGI: > 100 µM
[48]
  GI50: > 100 µM
  TGI: > 100 µM
[49]
  GI50: > 100 µM
  TGI: > 100 µM
[50]
  GI50: > 100 µM
  TGI: > 100 µM
[51]
  GI50: > 100 µM
  TGI: > 100 µM
[52]
  GI50: > 100 µM
  TGI: > 100 µM
[53]
  GI50: 34.6 µM
  TGI: > 100 µM
[54]
  GI50: > 100 µM
  TGI: > 100 µM
[55]
  GI50: > 100 µM
  TGI: > 100 µM
[56]
  GI50: > 100 µM
  TGI: > 100 µM
[57]
  GI50: > 100 µM
  TGI: > 100 µM
[58]
  GI50: > 100 µM
  TGI: > 100 µM

## NC1=C(Cl)C(=O)c2ccc(S(N)(=O)=O)cc2C1=O
[1]
  GI50: 1.82 µM
  TGI: 3.24 µM
[2]
  GI50: 0.507 µM
  TGI: 1.3 µM
[3]
  GI50: 0.16 µM
  TGI: 0.358 µM
[4]
  GI50: 0.263 µM
  TGI: 0.895 µM
[5]
  GI50: 0.171 µM
  TGI: 0.314 µM
[6]
  GI50: 0.82 µM
  TGI: 2.28 µM
[7]
  GI50: 0.374 µM
  TGI: 2.77 µM
[8]
  GI50: 1.57 µM
  TGI: 2.98 µM
[9]
  GI50: 0.132 µM
  TGI: 0.273 µM
[10]
  GI50: 1.53 µM
  TGI: 2.91 µM
[11]
  GI50: 0.775 µM
  TGI: 2.06 µM
[12]
  GI50: 0.224 µM
  TGI: 0.602 µM
[13]
  GI50: 0.164 µM
  TGI: 0.339 µM
[14]
  GI50: 0.366 µM
  TGI: 1.18 µM
[15]
  GI50: 0.251 µM
  TGI: 0.596 µM
[16]
  GI50: 2.04 µM
  TGI: 3.73 µM
[17]
  GI50: 0.126 µM
[18]
  GI50: 0.715 µM
  TGI: 2.91 µM
[19]
  GI50: 0.681 µM
  TGI: 1.57 µM
[20]
  GI50: 0.313 µM
  TGI: 1.21 µM
[21]
  GI50: 0.332 µM
  TGI: 1.06 µM
[22]
  GI50: 0.0367 µM
  TGI: 0.182 µM
[23]
  GI50: 0.134 µM
  TGI: 0.278 µM
[24]
  GI50: 0.0426 µM
  TGI: 0.137 µM
[25]
  GI50: 0.15 µM
  TGI: 0.346 µM
[26]
  GI50: 0.332 µM
  TGI: 2.7 µM
[27]
  GI50: 0.0288 µM
  TGI: 0.0743 µM
[28]
  GI50: 0.515 µM
  TGI: 3.22 µM
[29]
  GI50: 0.231 µM
  TGI: 0.595 µM
[30]
  GI50: 0.176 µM
  TGI: 0.517 µM
[31]
  GI50: 0.21 µM
  TGI: 0.487 µM
[32]
  GI50: 0.189 µM
  TGI: 0.403 µM
[33]
  GI50: 0.285 µM
  TGI: 4.68 µM
[34]
  GI50: 0.198 µM
  TGI: 0.454 µM
[35]
  GI50: 0.324 µM
  TGI: 1.01 µM
[36]
  GI50: 0.251 µM
  TGI: 0.658 µM
[37]
  GI50: 0.273 µM
  TGI: 0.977 µM
[38]
  GI50: 0.314 µM
  TGI: 1.5 µM
[39]
  GI50: 0.354 µM
  TGI: 2.04 µM
[40]
  GI50: 0.286 µM
  TGI: 0.903 µM
[41]
  GI50: 0.372 µM
  TGI: 1.22 µM
[42]
  GI50: 0.143 µM
  TGI: 0.289 µM
[43]
  GI50: 0.2 µM
  TGI: 0.379 µM
[44]
  GI50: 0.192 µM
  TGI: 0.487 µM
[45]
  GI50: 0.247 µM
  TGI: 0.565 µM
[46]
  GI50: 0.0304 µM
  TGI: 0.0963 µM
[47]
  GI50: 1.67 µM
  TGI: 3.11 µM
[48]
  GI50: 0.172 µM
  TGI: 0.34 µM
[49]
  GI50: 0.305 µM
  TGI: 1.05 µM
[50]
  GI50: 0.144 µM
  TGI: 0.293 µM
[51]
  GI50: 0.262 µM
  TGI: 0.606 µM
[52]
  GI50: 0.293 µM
  TGI: 0.89 µM
[53]
  GI50: 0.318 µM
  TGI: 1.2 µM
[54]
  GI50: 1.56 µM
  TGI: 2.95 µM
[55]
  GI50: 0.184 µM
  TGI: 0.871 µM
[56]
  GI50: 0.128 µM
  TGI: 0.267 µM
[57]
  GI50: 0.135 µM
  TGI: 0.273 µM
[58]
  GI50: 0.211 µM
  TGI: 0.564 µM

## CC(C)C(NC(=O)OC(C)(C)C)C(=O)NCC(=O)OCc1ccccc1 (stereo not given) (Boc-[ξV]-Gly-OBn)
[1]
  GI50: 24 µg/mL
  TGI: 71.9 µg/mL
[7]
  GI50: 0.594 µg/mL
  TGI: 30.8 µg/mL
[8]
  GI50: 19.7 µg/mL
  TGI: 40.9 µg/mL
[11]
  GI50: 48.2 µg/mL
[12]
  GI50: 22 µg/mL
  TGI: 52.6 µg/mL
[13]
  GI50: 31.9 µg/mL
[14]
  GI50: 17.3 µg/mL
  TGI: 44.2 µg/mL
[17]
  GI50: 98.2 µg/mL
[20]
  GI50: 18.3 µg/mL
  TGI: 75.1 µg/mL
[21]
  GI50: 51.9 µg/mL
[23]
  GI50: 35.9 µg/mL
[25]
  GI50: 87 µg/mL
[26]
  GI50: 43 µg/mL
[27]
  GI50: 44.5 µg/mL
[59]
  GI50: 57.5 µg/mL (≈ 158 µM)
[28]
  GI50: 52.7 µg/mL
[32]
  GI50: 30 µg/mL
[34]
  GI50: 48.8 µg/mL
[39]
  GI50: 36.1 µg/mL
  TGI: 86.1 µg/mL
[44]
  GI50: 22.5 µg/mL
  TGI: 69.2 µg/mL
[55]
  GI50: 94.9 µg/mL
